Results: patent publication US5635391A, “Isolated DNA encoding a nitrilase polypeptide, hosts containing, and expression thereof optionally assisted by a E. coli GroE chaperone polypeptide” (priority 1992, dated 1997)

Molecular target: T1, purified nitrilase (Comamonas testosteroni, UniProt Q59329)
T1 construct: about 280 kDa oligomer of about 38 kDa subunits
Assay: Relative activity of the purified nitrilase on various nitriles
Assay type: biochemical, Comamonas testosteroni sp.
Settings: acetate buffer 10 mM, pH 4; substrate 10 mM; 25° C.
Description: The activities of the purified nitrilase were measured on adiponitrile, 5-cyanovaleramide, 5-cyanovaleric acid, benzonitrile, propionitrile and acrylonitrile.
COMMON CONDITIONS: acetate buffer=10 mM, pH 4; substrate=10 mM; volume=3 ml; T=25° C.; reaction time=1 or 3 h; proteins: from 5 to 30 μg/ml.

T1 sequence (Q59329 entry or part of it): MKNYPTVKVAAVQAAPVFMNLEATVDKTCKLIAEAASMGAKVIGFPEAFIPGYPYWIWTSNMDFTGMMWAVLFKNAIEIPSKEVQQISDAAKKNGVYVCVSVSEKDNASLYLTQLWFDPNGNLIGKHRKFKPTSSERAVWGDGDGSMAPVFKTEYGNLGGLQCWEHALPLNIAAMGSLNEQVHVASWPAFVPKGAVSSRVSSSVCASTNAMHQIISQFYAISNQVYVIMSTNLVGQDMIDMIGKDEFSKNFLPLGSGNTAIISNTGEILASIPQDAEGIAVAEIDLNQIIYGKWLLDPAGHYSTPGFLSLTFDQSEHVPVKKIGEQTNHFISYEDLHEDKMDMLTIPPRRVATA

N#CCCCCC#N [Adiponitrile, adiponitrile]
RELATIVE ACTIVITY: 100%
